Patent US7511041B2, “Fused azole-pyrimidine derivatives” (Bayer Pharmaceuticals Corporation, priority 2002, dated 2009)
Read-outs that look alike come from different tables or passages of the source.

Assays:
[1] = biological target: T1, Recombinant human PI3Kγ (full length human PI3K p110γ) (Homo sapiens, UniProt P48736); experiment: Kinase assay of PI3Kγ (solid-phase lipid kinase assay); type: biochemical
T1 construct: full length human PI3K p110γ fused with a His6-tag at the C-terminus; His6 (C); purchased ALEXIS BIOCHEMICALS #201-055-C010; host or cells: S. frugiperda 9 insect cells
T1 sequence (P48736 whole entry, the tested form may be a part): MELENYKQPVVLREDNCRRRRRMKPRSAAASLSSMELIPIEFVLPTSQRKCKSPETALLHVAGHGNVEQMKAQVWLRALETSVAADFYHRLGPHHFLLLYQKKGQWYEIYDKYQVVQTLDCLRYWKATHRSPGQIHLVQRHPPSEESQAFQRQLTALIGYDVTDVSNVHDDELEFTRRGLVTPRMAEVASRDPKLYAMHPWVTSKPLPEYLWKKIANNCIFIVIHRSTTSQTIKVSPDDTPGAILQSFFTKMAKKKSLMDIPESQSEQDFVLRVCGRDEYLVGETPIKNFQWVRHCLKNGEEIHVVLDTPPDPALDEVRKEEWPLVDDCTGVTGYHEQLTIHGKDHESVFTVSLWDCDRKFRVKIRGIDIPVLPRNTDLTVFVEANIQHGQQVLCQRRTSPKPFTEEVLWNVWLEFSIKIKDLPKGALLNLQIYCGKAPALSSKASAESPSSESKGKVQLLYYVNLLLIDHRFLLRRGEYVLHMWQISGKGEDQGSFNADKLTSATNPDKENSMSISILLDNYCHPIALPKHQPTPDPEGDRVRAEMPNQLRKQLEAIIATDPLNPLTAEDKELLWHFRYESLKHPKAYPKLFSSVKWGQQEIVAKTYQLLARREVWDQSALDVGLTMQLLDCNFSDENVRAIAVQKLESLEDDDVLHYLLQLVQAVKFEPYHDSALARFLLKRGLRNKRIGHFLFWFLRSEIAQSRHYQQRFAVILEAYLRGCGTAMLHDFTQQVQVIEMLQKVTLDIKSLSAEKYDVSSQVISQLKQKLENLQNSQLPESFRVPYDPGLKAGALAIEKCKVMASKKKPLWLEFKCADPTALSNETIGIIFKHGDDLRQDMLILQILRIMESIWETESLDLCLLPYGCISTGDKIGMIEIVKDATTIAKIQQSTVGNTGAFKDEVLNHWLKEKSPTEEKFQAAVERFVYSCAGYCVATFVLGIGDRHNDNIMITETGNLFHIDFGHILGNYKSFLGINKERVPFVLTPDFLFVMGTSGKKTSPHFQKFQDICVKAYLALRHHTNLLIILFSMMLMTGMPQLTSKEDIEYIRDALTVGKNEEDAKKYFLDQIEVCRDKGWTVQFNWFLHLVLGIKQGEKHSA
Description: [Determination of IC50 Values of Compounds in Kinase Assay of PI3Kγ]
Chemicals and Assay Materials
LABORATORIES (Toronto, Canada). Recombinant human PI3Kγ (full length human PI3K p110γ fused with a His6-tag at the C-terminus expressed in S. frugiperda 9 insect cells) was obtained from ALEXIS BIOCHEMICALS (#201-055-C010; San Diego, Calif.). […] BIOTECH (Buckinghamshire, UK) and ROCHE DIAGNOSTICS (Mannheim, Germany), respectively. Scintillation cocktails and MicroScint PS™ were purchased from PACKARD (Meriden, Conn.). Maxisorp™ plates were purchased from NALGE NUNC INTERNATIONAL K.K. (Tokyo, Japan). All other chemicals not further specified were from WAKO PURE CHEMICALS (Osaka, Japan).
Solid-Phase Lipid Kinase Assay
The plates were subsequently air-dried by incubation for at least 2 hours in a fume hood. The reaction was set up by mixing 25 μl/well of assay buffer 2× (100 mM MOPSO/NaOH, 0.2 M NaCl, pH 7.0, 8 mM MgCl2, 2 mg/ml BSA (fatty acid-free)) and 50 ng/well PI3Kγ in the lipid pre-coated plate and 10× test compounds were added in 2% DMSO. The reaction was started by adding 20 μl/well of ATP mix (final 10 μM ATP; 0.05 μCi/well [γ^33P]ATP). After incubation at RT for 2 hours, the reaction was terminated by adding 50 μl/well stop solution (50 mM EDTA, pH 8.0). The plate was then washed twice with Tris-buffered saline (TBS, pH 7.4). MicroScint PS™ (PACKARD) scintillation mix was added at 100 μl/well, and radioactivity was counted by using a TopCount™ (PACKARD) scintillation counter.
The inhibition percent at each concentration of compound was calculated, and IC50 values were determined from the inhibition of curve.

[2] = in vitro PI3K-γ inhibitory activity, class symbols, read-out: in vitro PI3K-gamma
[3] = Table 1, isozyme not given, read-out: in vitro
[4] = in vitro PI3K-γ inhibitory activity, class symbols A-D, read-out: in vitro PI3K-gamma

Row | IC50 [1, 2] [nM] | melting point | IC50 [1, 3] [nM] | IC50 [1, 4] [nM] | IC50 ([1]; activity class of IC50, read-out: In vitro PI3K-γ inhibitory activity) [nM] | SMILES
1 | < 100 | 209 °C |  |  |  | Cc1ccc(C(=O)NC2=Nc3cc(N4CCOCC4)ccc3C3=NCCN23)cn1 [Example 2-13]
2 |  | 264 to 265 °C | < 100 |  |  | COc1c(OCCO)ccc2c1N=C(/C=C(\O)c1cccnc1)N1CCN=C21 [Example 1-16]
3 |  | 240 to 248 °C | > 2000 |  |  | O=[N+]([O-])c1ccc(/C(O)=C/C2=Nc3ccccc3C3=NCCN23)cc1 [Example 1-168]
4 |  | 278 °C | < 100 |  |  | COc1cc2c(c(OC)c1C)N=C(/C=C(\O)c1cccnc1)N1CCN=C21 [Example 1-62]
5 | 100 to 500 | 231 °C (dec.) |  |  |  | Cl.O=C(O)COc1ccc2c(c1)N=C(NC(=O)c1cccnc1)N1CCN=C21 [Example 2-203]
6 |  | > 300 °C | < 100 |  |  | Cl.O/C(=C\C1=Nc2cc(N3CCCC(O)C3)ccc2C2=NCCN12)c1ccc2[nH]cnc2c1 (centres unmarked) [Example 1-210]
7 |  | 211 to 212 °C | 100 to 500 |  |  | OCCOc1cccc2c1N=C(/C=C(\O)c1cccnc1)N1CCN=C21 [Example 1-91]
8 | 100 to 500 | 286 °C (dec.) |  |  |  | COc1cc(OC)c2c(c1)C1=NCCN1C(NC(=O)c1ccc(NC(C)=O)nc1)=N2 [Example 2-70]
9 |  | 225 to 226 °C | 100 to 500 |  |  | CC(=O)Oc1cccc2c1N=C(/C=C(\O)c1cccnc1)N1CCN=C21 [Example 1-93]
10 |  | 217 °C | 100 to 500 |  |  | Cc1ccc2c(c1OCCN1CCOCC1)N=C(/C=C(\O)c1cccnc1)N1CCN=C21 [Example 1-39]
11 |  | 135 to 136 °C |  | > 2000 |  | CC(C)(C)C(=O)NC1=Nc2ccccc2C2=NCCN12 [Example 2-331]
12 |  | 321 °C | 100 to 500 |  |  | Cl.O/C(=C\C1=Nc2cc(C(F)(F)F)ccc2C2=NCCN12)c1cccnc1 [Example 1-122]
13 |  | 240 to 241 °C |  | > 2000 |  | COc1cc2c(cc1OC)C1=NCCN1C(NC(C)=O)=N2 [Example 2-343]
14 | 100 to 500 | 233 °C (dec.) |  |  |  | Cc1nc(C)c(C(=O)NC2=Nc3cc(N4CCOCC4)ccc3C3=NCCN23)s1 [Example 2-16]
15 |  | > 300 °C | < 100 |  |  | O/C(=C\C1=Nc2ncccc2C2=NCCN12)c1ccc2[nH]cnc2c1 [Example 1-159]
16 |  | 246 °C | 100 to 500 |  |  | O=C(NCCc1ccc2c(n1)N=C(/C=C(\O)c1cccnc1)N1CCN=C21)N1CCCCC1 [Example 1-205]
17 |  | 188 to 190 °C |  | > 2000 |  | CN(C)c1cccc(C(=O)NC2=Nc3ccccc3C3=NCCN23)c1 [Example 2-258]
18 | < 100 | 279 to 282 °C |  |  |  | COc1ccc2c(c1)N=C(NC(=O)c1ccc(N)nc1)N1CCN=C21 [Example 2-23]
19 |  | > 285 °C | < 100 |  |  | CC(=O)Nc1ccc(/C(O)=C/C2=Nc3c(Br)cc(C)cc3C3=NCCN23)cn1.Cl [Example 1-46]
20 |  | 242 °C |  | 500 to 2000 |  | O=C(NC1=Nc2ccc(F)cc2C2=NCCN12)c1cccnc1 [Example 2-360]
21 | < 100 | 185 °C (dec.) |  |  |  | COc1cccc2c1N=C(NC(=O)c1cccnc1Cl)N1CCN=C21 [Example 2-118]
22 |  | 186 to 187 °C | 100 to 500 |  |  | CN(C)CCOc1cccc2c1N=C(/C=C(\O)c1cccnc1)N1CCN=C21 [Example 1-86]
23 |  | 220 to 225 °C | > 2000 |  |  | O/C(=C\C1=Nc2ccccc2C2=NCCN12)c1csc2ccccc12 [Example 1-180]
24 |  | 303 °C | 100 to 500 |  |  | Cl.O/C(=C\C1=Nc2c(F)cccc2C2=NCCN12)c1cccnc1 [Example 1-71]
25 | 100 to 500 | 182 °C |  |  |  | Cc1ccc2c(c1)N=C(NC(=O)c1cccs1)N1CCN=C21 [Example 2-31]
26 | < 100 | > 290 °C |  |  |  | Cc1ccc2c(c1)C1=NCCN1C(NC(=O)c1ccc3[nH]cnc3c1)=N2.Cl [Example 2-92]
27 |  | 148 °C | 100 to 500 |  |  | O/C(=C\C1=Nc2ccccc2C2=NCCN12)c1ccno1 [Example 1-152]

Row | IC50 [1, 2] [nM] | melting point | IC50 [1, 3] [nM] | IC50 [1, 4] [nM] | IC50 ([1]; activity class of IC50, read-out: In vitro PI3K-γ inhibitory activity) [nM] | SMILES
28 |  | 204 to 205 °C | 100 to 500 |  |  | O/C(=C\C1=Nc2ccccc2C2=NCCN12)c1ccncc1 [Example 1-175]
29 | < 100 | 264 °C |  |  |  | COc1ccc2c(c1Br)N=C(NC(=O)c1cccnc1)N1CCN=C21 [Example 2-65]
30 | 100 to 500 | 167 °C (dec.) |  |  |  | O=C(NC1=Nc2ccccc2C2=NCCN12)c1ccsc1 [Example 2-183]
31 |  | 291 °C (dec.) |  | > 2000 |  | COc1cc(C(=O)NC2=Nc3ccccc3C3=NCCN23)cc(OC)c1OC.Cl [Example 2-240]
32 |  | 197 °C | < 100 |  |  | COc1ccc2c(c1OCCN1CCOCC1)N=C(/C=C(\O)c1cccnc1)N1CCN=C21 [Example 1-36]
33 |  | 223 to 224 °C (dec.) |  |  | 500 to 2000 | O=C(Nc1nc2ccccc2c2nccn12)c1cccnc1 [Example 4-1, N-Imidazo[1,2-c]quinazolin-5-ylnicotinamide]
34 | 100 to 500 | 243 °C (dec.) |  |  |  | Cc1nc(C)c(C(=O)NC2=Nc3ccccc3C3=NCCN23)s1 [Example 2-189]
35 |  | > 300 °C |  | 100 to 500 |  | O=C(NC1=Nc2ccc(O)cc2C2=NCCN12)c1cccnc1 [Example 2-210]
36 | 100 to 500 | 270 °C (dec.) |  |  |  | COc1cc2c(cc1OC)C1=NCCN1C(NC(=O)c1cn[nH]c1)=N2.Cl [Example 2-63]
37 |  | 267 °C | < 100 |  |  | Cl.O=C(O)CCCCc1ccc2c(n1)N=C(/C=C(\O)c1cccnc1)N1CCN=C21 [Example 1-206]
38 | 100 to 500 | > 250 °C |  |  |  | Cc1ccsc1C(=O)NC1=Nc2ccccc2C2=NCCN12.Cl [Example 2-182]
39 | 100 to 500 | 219 °C (dec.) |  |  |  | COc1cncc(C(=O)NC2=Nc3ccccc3C3=NCCN23)c1 [Example 2-140]
40 |  | 185 to 187 °C |  | > 2000 |  | COc1ccccc1C(=O)NC1=Nc2ccccc2C2=NCCN12 [Example 2-232]
41 |  | 204 to 205 °C | < 100 |  |  | COc1c(OCCN2CCCC2)ccc2c1N=C(/C=C(\O)c1cccnc1)N1CCN=C21 [Example 1-21]
42 |  | 193 °C | < 100 |  |  | O/C(=C\C1=Nc2ccccc2C2=NCCN12)c1cccs1 [Example 1-146]
43 | 100 to 500 | 243 °C (dec.) |  |  |  | Cl.O=C(NC1=Nc2cc(OCCCO)ccc2C2=NCCN12)c1cccnc1 [Example 2-200]
44 | 100 to 500 | 295 °C (dec.) |  |  |  | Cl.O=C(NC1=Nc2ccccc2C2=NCCN12)c1cccc2[nH]ccc12 [Example 2-169]
45 |  | 233 °C | 100 to 500 |  |  | Cl.O/C(=C\C1=Nc2cc(Br)ccc2C2=NCCN12)c1cccnc1 [Example 1-118]
46 |  | 257 to 259 °C | > 2000 |  |  | COc1cc2c(cc1OC)C1=NCCN1C(/C=C(\O)c1cccc(Cl)c1)=N2 [Example 1-186]
47 |  | 314 °C (dec.) |  | 500 to 2000 |  | Cl.O=C(NC1=Nc2ccccc2C2=NCCN12)c1ccc2ncsc2c1 [Example 2-313]
48 | < 100 | 110 °C |  |  |  | COc1cccc2c1N=C(NC(=O)c1cccnc1)N1CCN=C21 [Example 2-114]
49 | < 100 | 237 °C (dec.) |  |  |  | Cl.O=C(NC1=Nc2cc(C(F)(F)F)ccc2C2=NCCN12)c1cncc(O)c1 [Example 2-35]
50 |  | 260 to 261 °C |  | > 2000 |  | O=C(NC1=Nc2ccccc2C2=NCCN12)c1csc(-c2cccnc2)n1 [Example 2-319]
51 | < 100 | 278 °C |  |  |  | Cl.O=C(NC1=Nc2cc(Br)ccc2C2=NCCN12)c1ccc2[nH]cnc2c1 [Example 2-45]
52 |  | 260 °C (dec.) | 100 to 500 |  |  | COc1cc2c(cc1OC)C1=NCCN1C(/C=C(\O)c1ccc(C)nc1)=N2.Cl [Example 1-50]
53 |  | 243 to 247 °C (dec.) |  | 100 to 500 |  | Cl.O=C(NC1=Nc2cc(OCCN3CCOCC3)ccc2C2=NCCN12)c1cccnc1 [Example 2-205]

Row | SMILES | IC50 [1, 2] [nM] | melting point | IC50 [1, 3] [nM] | IC50 [1, 4] [nM] | IC50 ([1]; activity class of IC50, read-out: In vitro PI3K-γ inhibitory activity) [nM]
54 | O=C(NC1=Nc2ccc([N+](=O)[O-])cc2C2=NCCN12)c1cccnc1.O=C(O)C(F)(F)F [Example 2-362] |  | 224 °C |  | 500 to 2000 | 
55 | O=C(NC1=Nc2ccccc2C2=NCCN12)c1cccnc1.O=C(O)C(F)(F)F [Example 2-130] | < 100 | 237 to 239 °C |  |  | 
